Experiments:
[1] = tested on: myeloid cells obtained from blood, the heart, and the lungs; assay: Flow cytometric analysis of MDSC ratio in myeloid cells of mice with LPS-induced sepsis (in vivo); set-up: species or system C57BL/6 mice
Description: Animal experiments were performed according to the National Institutes of Health (NIH) guidelines for the care and use of experimental animals. This study was conducted with the approval of the Konkuk University Animal Care and Use Committee (KU16062). 8-week-old male C57BL/6 mice without specific pathogens were used, and as needed, experimental groups were divided into three groups: a control, an LPS group, and an LPS+GR group.
(§1) Specifically, 0.1 ml of phosphate buffered saline (PBS; Gibco, Grand Island, N.Y., USA) was injected intraperitoneally (i.p.) into mice of the control, and 12 hours after the injection, 0.1 ml of PBS was intraperitoneally injected again into each mouse. 1 μg of LPS (Escherichia coli serotype 0111:B4, Sigma-Aldrich, St. Louis, Mo., USA) dissolved in 0.1 ml of PBS was injected intraperitoneally (i.p.) into mice of the LPS group to induce sepsis, and 12 hours after sepsis induction, 0.1 ml of PBS was intraperitoneally injected into each mouse. […]
The myeloid cells obtained from blood, the heart, or the lungs were washed with fluorescence-activated cell sorting (FACS) buffer (PBS containing 1% bovine serum albumin and 0.01% NaN3). […]

[2] = tested on: Toll-like receptor 4 (TLR4); assay: Western blotting of TLR4 in heart or lung tissues; type: in vivo, C57BL/6 mice
Description: Specifically, 0.1 ml of phosphate buffered saline (PBS; Gibco, Grand Island, N.Y., USA) was injected intraperitoneally (i.p.) into mice of the control, and 12 hours after the injection, 0.1 ml of PBS was intraperitoneally injected again into each mouse. 1 μg of LPS (Escherichia coli serotype 0111:B4, Sigma-Aldrich, St. Louis, Mo., USA) dissolved in 0.1 ml of PBS was injected intraperitoneally (i.p.) into mice of the LPS group to induce sepsis, and 12 hours after sepsis induction, 0.1 ml of PBS was intraperitoneally injected into each mouse. 1 μg of LPS and 100 mg/kg of ammonium glycyrrhizinate (GR; Abcam Inc., Cambridge, UK) dissolved in 0.1 ml of PBS were injected intraperitoneally (i.p.) into mice of the LPS+GR group, and 12 hours after the injection, 100 mg/kg of ammonium glycyrrhizinate dissolved in 0.1 ml of PBS was intraperitoneally injected into each mouse.
It was determined whether TLR4 expression levels were inhibited when mice with sepsis induced by LPS were treated with glycyrrhizin. The expression level of Toll-like receptor 4 (TLR4) was confirmed using immunohistochemistry and western blot analysis.
Western blotting was performed to confirm the intensity of TLR4 staining. […] Band intensity was quantified using Luminescent Image Analyzer LAS-3000 (FUJIFILM Medical Systems, Hanover Park, Ill., USA). The density of each band was analyzed using NIH Image J software.

[3] = tested on: IL-1β; assay: ELISA of IL-1β in BALF and blood of mice with LPS-induced sepsis; type: in vivo, C57BL/6 mice; settings: 12 hours after final injection
Description: as §1
Specifically, for the analysis of bronchoalveolar lavage fluid and blood, 12 hours after the final injection into mice of each experimental group of Example 1, 1 μg/g of Zoletil®50 (a combined preparation of tiletamine and zolazepam, Virbac Laboratories, Carros, France) as an anesthetic and 0.1 U/g of heparin sodium (Green Cross Co., Yongin, Korea) were intraperitoneally injected into each mouse to minimize the effect of aches or pains on immunity. […] The levels of tumor necrosis factor (TNF)-α, IL-6, and IL-1β in BALF and blood were measured using a mouse enzyme-linked ELISA kit (R&D Systems Inc., Minneapolis, Minn., USA) according to the manufacturer's instructions. Samples collected from each group were analyzed in triplicate.

## lipopolysaccharide [LPS]
[1]; myeloid cells from blood, heart or lungs, LPS 1 μg i.p., GR 100 mg/kg i.p. twice
  ratio of MDSCs to myeloid cells (MDSCs/myeloid cells): significantly reduced compared to the control
[1]; preliminary study using 6 mice with LPS-induced sepsis, blood
  blood ratio of MDSCs to CD11+GR1 myeloid cells: 18.4±3.13%
[2]; heart
  TLR4 intensity by western blotting: 403.9±29.3
[2]; lungs
  TLR4 intensity by western blotting: 350.7±21.3
[3]; BALF
  IL-1β: 164.82 ± 17.81 pg/µL
[3]; Blood
  IL-1β: 126.28 ± 7.61 pg/µL

Reference: patent US20200071667A1, “COMPOSITION COMPRISING GLYCYRRHIZIN FOR INDUCING DIFFERENTIATION INTO MYELOID-DERIVED SUPPRESSOR CELL FROM MYELOID CELL” (Konkuk University Glocal Industry-Academic Collabo, priority 2018, published 2020)
